In patent publication US20040037806A1, “Aldosterone blocker therapy to prevent or treat inflammation-related disorders” (Pharmacia Corporation, priority 2002, published 2004):

Key:
[1] = Assay C: body weight, ventricle weights, tibia length (myocardial hypertrophy); assay type: in vivo, rat; conditions: for Ventricular hypertrophy (absolute ventricular weights, ventricular weight to tibia length ratios): aldosterone+salt alone or with eplerenone 100 mg/kg/day, 7, 14, 30 days; for Body weight: aldosterone+salt at days 7, 14 and 30 vs vehicle+salt, eplerenone 100 mg/kg/day effect at day 30
Description: The procedure of Assay B was expanded upon in a further study. […] Myocardial tissue from animals in each treatment group was examined after 7, 14, or 30 days of treatment. […] Lesions were preceded by the expression and progressive upregulation of proinflammatory molecules. […] Male Sprague-Dawley rats, weighing 230 to 250 g, (Harlan Sprague-Dawley Industries, Indianapolis, Ind.) were housed in a room 12-hours light/12-hours dark daily cycle at an ambient temperature of 22±1° C. (n=96). Animals were allowed one week to adjust after arrival and had free access to TEKLAD 22/5 rodent diet (Harlan TEKLAD, Madison, Wis.) and tap water until the initiation of the experiment. Prior to surgery the animals were individually weighed and placed in one of the following groups: […] Potassium chloride supplementation was added to the saline solution in order to prevent the potential hypokalemia associated with aldosterone excess. Treatment At the time of the surgery, an Alzet 2002 osmotic minipump (Alza Corp., Palo Alto, Calif.) containing either vehicle (9% ethanol/87% propylene glycol/4% dH2O) or 1.0 mg/mL d-aldosterone (Sigma Chemical, St. Louis, Mo.) was inserted subcutaneously at the nape of the neck. Aldosterone was administered at a dose of 0.75 µg/hour. […] Animals were sacrificed from each group (n=8-13) after 7, 14, or 30 days of treatment. At the cessation of each experimental time point, the animals were anesthetized with pentobarbital (65 mg/kg i.p., Sigma Chemical, St. Louis Mo.) and weighed with a Mettler PM6000 balance (Mettler-Toledo, Inc., Hightstown, N.J.). The abdominal cavity was opened to expose the abdominal aorta. A 16-gauge needle was inserted into the abdominal aorta and the animal was exsanguinated into a 12 cc syringe. The blood sample was transferred immediately into glass serum collection tubes (Terumo Medical Corp., Elkton, Md.) for drug level analysis. The samples were placed on wet ice until sample collection was complete and centrifuged for 15 min at 3000 rev/min at 4° C. Following exsanguination, hearts and kidneys were isolated, removed, rinsed in cold phosphate-buffered saline, and blotted dry. Kidneys were immediately bifurcated through the long axis with a razor blade and placed in 10% neutral buffered formalin (NBF, Richard-Allen Scientific, Kalamazoo, Mich.). For the hearts, the right ventricle (RV) was cut away from the left ventricle (LV), both ventricles were weighed using a Mettler AE163 balance (Mettler-Toledo, Inc., Hightstown, N.J.), and the RV was placed in 10% NBF. […] Final wet trimming was completed after 3-4 days fixation where a second 2 mm coronal slab was removed for hydroxyproline analysis and a third 2mm slab was removed from the equatorial region for histology.

[2] = system: Osteopontin, ED-1, CD-3, ICAM-1, VCAM-1; assay: Assay C: immunohistochemistry of myocardial tissue; assay type: in vivo, rat; conditions: aldosterone+salt alone or with eplerenone 100 mg/kg/day
Description: The procedure of Assay B was expanded upon in a further study. […] Myocardial tissue from animals in each treatment group was examined after 7, 14, or 30 days of treatment. […] Lesions were preceded by the expression and progressive upregulation of proinflammatory molecules.
Potassium chloride supplementation was added to the saline solution in order to prevent the potential hypokalemia associated with aldosterone excess.
Treatment At the time of the surgery, an Alzet 2002 osmotic minipump (Alza Corp., Palo Alto, Calif.) containing either vehicle (9% ethanol/87% propylene glycol/4% dH2O) or 1.0 mg/mL d-aldosterone (Sigma Chemical, St. Louis, Mo.) was inserted subcutaneously at the nape of the neck. Aldosterone was administered at a dose of 0.75 µg/hour. […] Animals were sacrificed from each group (n=8-13) after 7, 14, or 30 days of treatment.
Five μm sections were deparaffinized in xylene (two, 5-10 min incubations) and rehydrated by 3 min incubations in ethanol as follows: two incubations in 100% ethanol followed by two incubations in 95% alcohol and one incubation in 70% alcohol. Once hydrated, sections were rinsed in tap water for 1 min and distilled water for 1 min. Endogenous peroxide activity was blocked by placing slides in 3.0% H2O2 for 15 min followed by a 5 min rinse in distilled water. Slides were processed for antigen retrieval using citric acid, pH6.0. […]

| Structure (SMILES) | Final Body Weight ([1]; 7 days of treatment, uninephrectomized Sprague-Dawley rats, 1% NaCl-0.3% KCl, aldosterone infusion alone or with eplerenone 100 mg/kg/day, individual rats and group Mean) | Ventricular hypertrophy (absolute ventricular weights, ventricular weight to tibia length ratios) [1] | Body weight [1] | Immunohistochemical staining of marker proteins in myocardial tissue [2] |
| --- | --- | --- | --- | --- |
| COC(=O)[C@@H]1CC2=CC(=O)CC[C@]2(C)[C@@]23O[C@@H]2C[C@@]2(C)[C@@H](CC[C@@]24CCC(=O)O4)[C@H]13 [eplerenone] | 286 g | did not impact absolute ventricular weights or ventricular weight to tibia length ratios | significantly attenuated | markedly blunted |
| C[C@]12CCC(=O)C=C1CC[C@@H]1[C@@H]2[C@@H](O)C[C@]2(C=O)[C@@H](C(=O)CO)CC[C@@H]12 [aldosterone] | – | Significant left and right ventricular hypertrophy | significantly lower | Significant expression of osteopontin |
